In ChEMBL document CHEMBL6071123, “Design, synthesis and biological evaluation of 5-amino-1H-pyrazole-4-carboxamide derivatives as pan-FGFR covalent inhibitors” (Eur J Med Chem, 2024):
Values belong to the compound of their own block, whether it stands above or below them. Calls of active or inactive are those of the source. The rule behind the calls is not given here.

Tests used:
[1] = molecular target: Fibroblast growth factor receptor 1 (Homo sapiens, UniProt P11362); test: biochemical; assay type: cell-based
Description: Inhibition of N-terminal 6-his tagged human wild type FGFR1 (458 to 765 residues) expressed in Escherichia coli BL21 cells using Tyr 04 peptide as substrate incubated for 1 hr by FRET based Z-lyte assay

[2] = test system: NCI-H520; test: Antiproliferative activity against human NCI-H520 cells measured after 3 days by CCK-8 method; assay type: functional, cell-based; conditions: NCI-H520, 72 h
[3] = Antiproliferative activity against human KATO III stomach cancer cell line measured after 3 days by CCK-8 method; assay type: functional, cell-based; conditions: 72 h
[4] = test system: SNU-16; test: Antiproliferative activity against human SNU-16 cells measured after 3 days by CCK-8 method; assay type: functional, cell-based; conditions: SNU-16, 72 h
[5] = Metabolic stability in human liver microsomes assessed as hepatic extraction ratio at 1 uM measured upto 45 mins in presence of NADPH by HPLC-MS/MS analysis; assay type: ADME, Microsome; conditions: read-out: ERH
[6] = Metabolic stability in human liver microsomes assessed as half life at 1 uM measured upto 45 mins in presence of NADPH by HPLC-MS/MS analysis; assay type: ADME, Microsome
[7] = Metabolic stability in human liver microsomes assessed as intrinsic clearance at 1 uM measured upto 45 mins in presence of NADPH by HPLC-MS/MS analysis; assay type: ADME, Microsome; conditions: read-out: CLH
[8] = Metabolic stability in human liver microsomes assessed as hepatic clearance at 1 uM measured upto 45 mins in presence of NADPH by HPLC-MS/MS analysis; assay type: ADME, Microsome
[9] = Induction of apoptosis in human KATO III stomach cancer cell line assessed as late apoptotic cells at 100 nM incubated for 48 hrs by annexin V-FITC/PI staining based flow cytometry analysis (reference value: 6.39%); assay type: functional
[10] = Induction of cell cycle arrest in human KATO III stomach cancer cell line assessed as accumulation of cells at G1 phase at 100 nM measured after 24 hrs by PI staining based flow cytometry analysis (reference value: 29.8%); assay type: functional
[11] = Induction of apoptosis in human KATO III stomach cancer cell line assessed as necrotic cells at 10 nM incubated for 48 hrs by annexin V-FITC/PI staining based flow cytometry analysis (reference value: 0.072%); assay type: functional
[12] = molecular target: Fibroblast growth factor receptor 2 (Mus musculus) (UniProt P21803); test: Inhibition of FGFR2 phosphorylation in mouse BaF3 cells harbouring FGFR2 V564F mutant measured after 6 hrs by Western blot analysis; assay type: cell-based; conditions: dose 0-1000 nM
[13] = Induction of apoptosis in human KATO III stomach cancer cell line assessed as late apoptotic cells at 1000 nM incubated for 48 hrs by annexin V-FITC/PI staining based flow cytometry analysis (reference value: 6.39%); assay type: functional
[14] = Induction of cell cycle arrest in human KATO III stomach cancer cell line assessed as accumulation of cells at S phase at 10 nM measured after 24 hrs by PI staining based flow cytometry analysis (reference value: 28.3%); assay type: functional
[15] = test system: BaF3; test: Antiproliferative activity against mouse BaF3 cells harbouring FGFR2 V564F mutant assessed as reduction in cell viability incubated for 72 hrs by CCK-8 method; assay type: functional, cell-based; conditions: BaF3, 72 h
[16] = test system: BaF3; test: Effect on AKT protein level in mouse BaF3 cells harbouring FGFR2 V564F mutant at 0 to 1000 nM measured after 6 hrs by Western blot analysis; assay type: functional, cell-based; conditions: dose 0-1000 nM
[17] = Induction of apoptosis in human KATO III stomach cancer cell line assessed as early apoptotic cells at 1000 nM incubated for 48 hrs by annexin V-FITC/PI staining based flow cytometry analysis (reference value: 3.40%); assay type: functional
[18] = test system: BaF3; test: Effect on FGFR2 protein level in mouse BaF3 cells harbouring FGFR2 V564F mutant at 0 to 1000 nM measured after 6 hrs by Western blot analysis; assay type: functional, cell-based; conditions: dose 0-1000 nM
[19] = molecular target: Fibroblast growth factor receptor 2 (Homo sapiens, UniProt P21802, V564F); test: Inhibition of FGFR2 V564F mutant (unknown origin) using (Poly (4:1 Glu, Tyr) peptide as substrate by ADP-Glo kinase assay
[20] = Induction of apoptosis in human KATO III stomach cancer cell line assessed as early apoptotic cells at 10 nM incubated for 48 hrs by annexin V-FITC/PI staining based flow cytometry analysis (reference value: 3.40%); assay type: functional
[21] = Induction of apoptosis in human KATO III stomach cancer cell line assessed as viable cells at 100 nM incubated for 48 hrs by annexin V-FITC/PI staining based flow cytometry analysis (reference value: 90.1%); assay type: functional; conditions: read-out: Activity
[22] = test system: SNU-16; test: Inhibition of AKT phosphorylation in human SNU-16 measured after 2 hrs by Western blot analysis; assay type: cell-based; conditions: dose 0-300 nM
[23] = Induction of cell cycle arrest in human KATO III stomach cancer cell line assessed as accumulation of cells at G1 phase at 10 nM measured after 24 hrs by PI staining based flow cytometry analysis (reference value: 29.8%); assay type: functional
[24] = molecular target: T1, Fibroblast growth factor receptor 2 (Homo sapiens, UniProt P21802); test: Inhibition of FGFR2 phosphorylation in human SNU-16 measured after 2 hrs by Western blot analysis; assay type: cell-based; conditions: dose 0-300 nM
Target sequence in this assay (P21802 22-821 limits assumed): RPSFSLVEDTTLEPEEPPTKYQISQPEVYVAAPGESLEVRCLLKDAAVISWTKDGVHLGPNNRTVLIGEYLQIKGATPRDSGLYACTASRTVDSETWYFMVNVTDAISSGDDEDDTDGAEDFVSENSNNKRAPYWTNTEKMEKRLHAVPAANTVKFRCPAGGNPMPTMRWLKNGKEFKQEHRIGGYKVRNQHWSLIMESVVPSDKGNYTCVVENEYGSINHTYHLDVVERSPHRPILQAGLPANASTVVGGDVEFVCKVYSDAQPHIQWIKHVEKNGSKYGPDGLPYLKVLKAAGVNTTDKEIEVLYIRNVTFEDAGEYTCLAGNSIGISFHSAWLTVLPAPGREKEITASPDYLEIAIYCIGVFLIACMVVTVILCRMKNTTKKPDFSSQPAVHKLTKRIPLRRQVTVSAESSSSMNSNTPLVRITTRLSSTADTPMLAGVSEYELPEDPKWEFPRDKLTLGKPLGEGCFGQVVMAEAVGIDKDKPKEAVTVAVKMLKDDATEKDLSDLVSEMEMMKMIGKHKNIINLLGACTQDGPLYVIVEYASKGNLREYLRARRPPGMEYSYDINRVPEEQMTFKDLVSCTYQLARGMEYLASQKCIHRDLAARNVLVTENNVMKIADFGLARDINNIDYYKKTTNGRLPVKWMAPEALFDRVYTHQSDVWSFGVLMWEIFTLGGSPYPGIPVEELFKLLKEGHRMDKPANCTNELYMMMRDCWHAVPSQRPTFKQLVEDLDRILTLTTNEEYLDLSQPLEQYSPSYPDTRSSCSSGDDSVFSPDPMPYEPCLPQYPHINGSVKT

[25] = molecular target: Fibroblast growth factor receptor 3 (Homo sapiens, UniProt P22607); test: Inhibition of FGFR3 (unknown origin) using Tyr 04 peptide as substrate incubated for 1 hr by FRET based Z-lyte assay
[26] = test system: KATO III; test: Induction of cell cycle arrest in human KATO III stomach cancer cell line assessed as accumulation of cells at G1 phase measured after 24 hrs by PI staining based flow cytometry analysis; assay type: functional; conditions: dose 10-1000 nM
[27] = Induction of apoptosis in human KATO III stomach cancer cell line assessed as necrotic cells at 1000 nM incubated for 48 hrs by annexin V-FITC/PI staining based flow cytometry analysis (reference value: 0.072%); assay type: functional
[28] = Induction of apoptosis in human KATO III stomach cancer cell line assessed as viable cells at 1000 nM incubated for 48 hrs by annexin V-FITC/PI staining based flow cytometry analysis (reference value: 90.1%); assay type: functional; conditions: read-out: Activity
[29] = molecular target: T1, Fibroblast growth factor receptor 2; test: biochemical; assay type: cell-based
Target sequence in this assay (P21802 whole entry): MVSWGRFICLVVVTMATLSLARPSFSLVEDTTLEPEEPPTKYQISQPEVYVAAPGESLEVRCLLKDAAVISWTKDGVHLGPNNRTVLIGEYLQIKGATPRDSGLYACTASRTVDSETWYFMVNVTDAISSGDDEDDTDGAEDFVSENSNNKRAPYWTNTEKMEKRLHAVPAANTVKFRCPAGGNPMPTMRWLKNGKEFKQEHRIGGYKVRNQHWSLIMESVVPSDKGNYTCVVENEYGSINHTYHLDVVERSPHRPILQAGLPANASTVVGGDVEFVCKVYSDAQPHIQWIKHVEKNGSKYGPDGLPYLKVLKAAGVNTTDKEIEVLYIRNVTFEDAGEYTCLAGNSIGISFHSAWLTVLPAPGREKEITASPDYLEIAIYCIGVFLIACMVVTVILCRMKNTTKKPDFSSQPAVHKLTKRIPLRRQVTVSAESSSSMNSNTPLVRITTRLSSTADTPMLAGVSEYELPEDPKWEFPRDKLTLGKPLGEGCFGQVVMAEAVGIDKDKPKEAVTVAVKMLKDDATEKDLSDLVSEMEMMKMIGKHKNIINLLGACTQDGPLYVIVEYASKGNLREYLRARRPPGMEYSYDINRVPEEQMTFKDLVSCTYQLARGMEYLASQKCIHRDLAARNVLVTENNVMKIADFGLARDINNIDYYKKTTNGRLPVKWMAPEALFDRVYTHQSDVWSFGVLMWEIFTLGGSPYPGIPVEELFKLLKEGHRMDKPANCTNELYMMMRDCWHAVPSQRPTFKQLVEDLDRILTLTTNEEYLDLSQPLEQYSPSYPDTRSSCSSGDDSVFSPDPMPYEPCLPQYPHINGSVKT
Description: Inhibition of N-terminal 6-his tagged human wild type FGFR2 (458 to 768 residues) expressed in Escherichia coli BL21 cells using Tyr 04 peptide as substrate incubated for 1 hr by FRET based Z-lyte assay

[30] = test system: BaF3; test: Inhibition of AKT phosphorylation in mouse BaF3 cells harbouring FGFR2 V564F mutant measured after 6 hrs by Western blot analysis; assay type: cell-based; conditions: dose 0-1000 nM
[31] = Induction of cell cycle arrest in human KATO III stomach cancer cell line assessed as accumulation of cells at S phase at 100 nM measured after 24 hrs by PI staining based flow cytometry analysis (reference value: 28.3%); assay type: functional
[32] = Induction of cell cycle arrest in human KATO III stomach cancer cell line assessed as accumulation of cells at G2 phase at 1000 nM measured after 24 hrs by PI staining based flow cytometry analysis (reference value: 42.5%); assay type: functional
[33] = Induction of apoptosis in human KATO III stomach cancer cell line assessed as viable cells at 10 nM incubated for 48 hrs by annexin V-FITC/PI staining based flow cytometry analysis (reference value: 90.1%); assay type: functional; conditions: read-out: Activity
[34] = Induction of apoptosis in human KATO III stomach cancer cell line assessed as late apoptotic cells at 10 nM incubated for 48 hrs by annexin V-FITC/PI staining based flow cytometry analysis (reference value: 6.39%); assay type: functional
[35] = Induction of apoptosis in human KATO III stomach cancer cell line assessed as early apoptotic cells at 100 nM incubated for 48 hrs by annexin V-FITC/PI staining based flow cytometry analysis (reference value: 3.40%); assay type: functional
[36] = Induction of cell cycle arrest in human KATO III stomach cancer cell line assessed as accumulation of cells at G1 phase at 1000 nM measured after 24 hrs by PI staining based flow cytometry analysis (reference value: 29.8%); assay type: functional
[37] = Induction of apoptosis in human KATO III stomach cancer cell line assessed as necrotic cells at 100 nM incubated for 48 hrs by annexin V-FITC/PI staining based flow cytometry analysis (reference value: 0.072%); assay type: functional

Fibroblast growth factor receptor 1, sequence (P11362 whole entry): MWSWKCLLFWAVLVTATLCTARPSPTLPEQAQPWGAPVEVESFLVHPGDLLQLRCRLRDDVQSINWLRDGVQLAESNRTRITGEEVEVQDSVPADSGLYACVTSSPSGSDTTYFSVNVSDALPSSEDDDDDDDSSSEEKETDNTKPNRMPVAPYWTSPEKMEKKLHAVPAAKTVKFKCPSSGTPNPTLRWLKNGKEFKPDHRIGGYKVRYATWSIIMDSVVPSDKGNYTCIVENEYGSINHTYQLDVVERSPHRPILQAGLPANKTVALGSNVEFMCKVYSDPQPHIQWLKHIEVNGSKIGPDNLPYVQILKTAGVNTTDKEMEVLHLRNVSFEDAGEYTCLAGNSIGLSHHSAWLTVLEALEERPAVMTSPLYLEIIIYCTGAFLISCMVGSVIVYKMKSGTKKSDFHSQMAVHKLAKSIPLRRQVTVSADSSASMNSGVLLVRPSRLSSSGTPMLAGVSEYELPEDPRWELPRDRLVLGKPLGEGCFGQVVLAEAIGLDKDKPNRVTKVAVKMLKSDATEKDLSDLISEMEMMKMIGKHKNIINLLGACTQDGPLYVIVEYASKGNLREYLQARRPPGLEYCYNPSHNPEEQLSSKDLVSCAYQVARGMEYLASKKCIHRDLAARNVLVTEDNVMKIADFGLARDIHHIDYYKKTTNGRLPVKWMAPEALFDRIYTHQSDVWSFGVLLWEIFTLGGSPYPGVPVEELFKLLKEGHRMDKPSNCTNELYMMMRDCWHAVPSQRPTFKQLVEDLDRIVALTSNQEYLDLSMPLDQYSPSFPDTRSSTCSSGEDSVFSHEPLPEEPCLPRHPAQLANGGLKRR
Fibroblast growth factor receptor 3, sequence (P22607 whole entry): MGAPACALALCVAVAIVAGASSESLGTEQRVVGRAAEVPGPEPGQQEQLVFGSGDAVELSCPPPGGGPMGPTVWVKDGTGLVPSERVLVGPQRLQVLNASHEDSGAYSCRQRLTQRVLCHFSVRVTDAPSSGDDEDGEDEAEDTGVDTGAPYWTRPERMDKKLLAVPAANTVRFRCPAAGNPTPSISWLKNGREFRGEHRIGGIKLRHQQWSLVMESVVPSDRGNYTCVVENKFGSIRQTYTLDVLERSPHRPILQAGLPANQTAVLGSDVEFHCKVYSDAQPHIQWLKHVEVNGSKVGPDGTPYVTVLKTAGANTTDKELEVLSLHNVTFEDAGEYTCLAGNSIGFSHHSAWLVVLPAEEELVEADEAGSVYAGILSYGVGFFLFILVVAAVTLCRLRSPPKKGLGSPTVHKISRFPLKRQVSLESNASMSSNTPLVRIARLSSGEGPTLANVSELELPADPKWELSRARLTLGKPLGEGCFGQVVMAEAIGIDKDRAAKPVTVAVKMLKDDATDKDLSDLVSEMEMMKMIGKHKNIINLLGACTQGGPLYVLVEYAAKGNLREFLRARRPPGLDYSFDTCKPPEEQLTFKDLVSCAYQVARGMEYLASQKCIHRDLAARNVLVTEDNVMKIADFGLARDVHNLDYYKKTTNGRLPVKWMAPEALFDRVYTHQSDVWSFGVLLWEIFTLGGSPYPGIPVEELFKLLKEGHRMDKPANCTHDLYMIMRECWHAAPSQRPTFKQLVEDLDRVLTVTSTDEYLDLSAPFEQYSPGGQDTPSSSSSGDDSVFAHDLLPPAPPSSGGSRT
Fibroblast growth factor receptor 2 (Mus musculus), sequence (P21803 whole entry): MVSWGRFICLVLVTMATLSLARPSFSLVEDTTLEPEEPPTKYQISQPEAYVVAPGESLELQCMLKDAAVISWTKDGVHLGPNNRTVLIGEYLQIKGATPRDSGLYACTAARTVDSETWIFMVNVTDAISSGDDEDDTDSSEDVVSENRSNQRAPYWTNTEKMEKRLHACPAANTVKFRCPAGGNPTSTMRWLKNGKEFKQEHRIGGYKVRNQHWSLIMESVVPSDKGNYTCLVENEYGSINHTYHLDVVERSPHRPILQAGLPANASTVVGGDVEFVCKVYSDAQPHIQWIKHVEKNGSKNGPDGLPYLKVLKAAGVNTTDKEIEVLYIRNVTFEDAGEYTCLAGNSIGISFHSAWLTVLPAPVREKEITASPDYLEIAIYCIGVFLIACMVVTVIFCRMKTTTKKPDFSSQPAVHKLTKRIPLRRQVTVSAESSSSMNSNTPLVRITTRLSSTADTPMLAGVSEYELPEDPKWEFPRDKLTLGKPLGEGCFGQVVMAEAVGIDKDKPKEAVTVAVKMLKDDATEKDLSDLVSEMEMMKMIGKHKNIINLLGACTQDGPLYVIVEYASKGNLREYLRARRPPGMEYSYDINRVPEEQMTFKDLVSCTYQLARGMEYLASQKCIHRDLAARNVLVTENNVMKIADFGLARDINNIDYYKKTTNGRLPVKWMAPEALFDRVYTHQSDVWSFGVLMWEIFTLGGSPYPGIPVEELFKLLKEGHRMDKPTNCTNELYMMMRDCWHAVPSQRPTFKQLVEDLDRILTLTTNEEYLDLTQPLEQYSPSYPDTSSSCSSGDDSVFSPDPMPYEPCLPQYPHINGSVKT
Fibroblast growth factor receptor 2 (Homo sapiens, UniProt P21802, V564F), sequence (P21802 22-821 V564F limits assumed): as the sequence (P21802 22-821 limits assumed) above, with V543F counted along it

IC50 [1]: > 10000 nM
SMILES: C=CC(=O)Nc1ccc(Cn2nc(C#Cc3ccc(-c4c[nH]c(C)n4)cc3)c(C(N)=O)c2N)cc1

IC50 [1]: 3460 nM
SMILES: C=CC(=O)Nc1ccc(CCn2nc(C#Cc3cc(OC)cc(OC)c3)c3c(N)ncnc32)cc1

IC50 [1]: 2910 nM
SMILES: C=CC(=O)Nc1cccc(Cn2nc(C#Cc3c(F)cc4[nH]c(C)nc4c3F)c(C(N)=O)c2NCCOC)c1

SMILES: C=CC(=O)N1CC[C@H](n2nc(C#Cc3cc(OC)cc(OC)c3)c3c(N)ncnc32)C1 [FUTIBATINIB]
IC50 [2]: 14 nM
IC50 [3]: 4 nM
IC50 [4]: 0.44 nM

IC50 [1]: 660 nM
SMILES: C=CC(=O)Nc1ccc(Cn2nc(C#Cc3cc(OC)cc(OC)c3)c3c(N)ncnc32)cc1

IC50 [1]: 880 nM
SMILES: C=CC(=O)Nc1ccccc1Cn1nc(C#Cc2ccc3[nH]c(C)nc3c2)c(C(N)=O)c1N

IC50 [1]: 23 nM
SMILES: C=CC(=O)Nc1ccc(Cn2nc(-c3cc4cc(C)cc(OC)c4s3)c3c(N)ncnc32)cc1

hepatic extraction ratio at 0.75 h, 1 µM [5]: 0.639
half-life at 1 µM [6]: 43.7 min
CLint scaled at 1 µM [7]: 36.7 mL/min/kg
CLhep predicted at 1 µM [8]: 13.2 mL/min/kg
SMILES: O=C(c1ccc(F)cc1)C1CCN(CCn2c(=O)[nH]c3ccccc3c2=O)CC1 [KETANSERIN]

IC50 [1]: 1590 nM
SMILES: C=CC(=O)Nc1ccc(CCCn2nc(C#Cc3cc(OC)cc(OC)c3)c3c(N)ncnc32)cc1

IC50 [1]: 2000 nM
SMILES: C=CC(=O)Nc1ccc(Cn2nc(-c3ccc4[nH]c(C)nc4c3)c3c(N)ncnc32)cc1

inhibition [12]: Dose-Dependent Effect
IC50 [15]: 87 nM
IC50 [2]: 73 nM
IC50 [19]: 62 nM
half-life at 1 µM [6]: 46.4 min
inhibition [24]: Dose-Dependent Effect
IC50 [25]: 99 nM
CLint scaled at 1 µM [7]: 34.5 mL/min/kg
IC50 [29]: 41 nM
IC50 [4]: 19 nM
CLhep predicted at 1 µM [8]: 12.9 mL/min/kg
SMILES: C=CC(=O)Nc1cccc(Cn2nc(C#Cc3c(F)cc4[nH]c(C)nc4c3F)c(C(N)=O)c2N)c1
Activity [9]: 8.53%
Activity [10]: 59.4%
Activity [11]: 0.065%
Activity [13]: 12.7%
Activity [14]: 25.5%
Activity [16]: Active
Activity [17]: 10.1%
Activity [18]: Active
IC50 [3]: 59 nM
Activity [20]: 5.84%
viability at 0.1 µM [21]: 82.4%
inhibition [22]: Dose-Dependent Effect
Activity [23]: 35.3%
Activity [26]: Dose-Dependent Effect
Activity [27]: 0.085%
viability at 1 µM [28]: 77.1%
inhibition [30]: Dose-Dependent Effect
Activity [31]: 3.33%
Activity [32]: 35.7%
viability at 0.01 µM [33]: 86.7%
Activity [34]: 7.38%
Activity [35]: 8.85%
Activity [36]: 66.4%
Activity [37]: 0.27%

IC50 [1]: > 10000 nM
SMILES: C=CC(=O)Nc1cccc(Cn2nc(C#Cc3c(F)cc4[nH]c(C)nc4c3F)c(C(N)=O)c2NC)c1

IC50 [1]: 680 nM
SMILES: C=CC(=O)Nc1ccc(Cn2nc(C#Cc3ccc4[nH]c(C)nc4c3)c3c(N)ncnc32)cc1

IC50 [1]: 610 nM
SMILES: C=CC(=O)Nc1ccc(Cn2nc(C#Cc3ccc4oc(C)nc4c3)c(C(N)=O)c2N)cc1

IC50 [1]: 4800 nM
SMILES: C=CC(=O)Nc1ccc(Cn2nc(-c3ccc(Oc4ccccc4)cc3)c3c(N)ncnc32)cc1

IC50 [1]: 130 nM
SMILES: C=CC(=O)Nc1ccc(Cn2nc(C#Cc3c(F)cc4[nH]c(C)nc4c3F)c(C(N)=O)c2N)cc1

IC50 [1]: 320 nM
SMILES: C=CC(=O)Nc1ccc(Cn2nc(C#Cc3ccc4[nH]c(C)nc4c3)c(C(N)=O)c2N)cc1

IC50 [1]: 950 nM
SMILES: C=CC(=O)Nc1ccc(Cn2nc(C#Cc3ccc4sc(C)nc4c3)c(C(N)=O)c2N)cc1

IC50 [1]: > 10000 nM
SMILES: C=CC(=O)Nc1ccc(Cn2nc(-c3ccc(Oc4nccc(C)n4)c(F)c3)c3c(N)ncnc32)cc1

IC50 [1]: 2340 nM
SMILES: C=CC(=O)Nc1ccc(CCCCn2nc(C#Cc3cc(OC)cc(OC)c3)c3c(N)ncnc32)cc1

IC50 [1]: > 10000 nM
SMILES: C=CC(=O)Nc1cccc(Cn2nc(C#Cc3c(F)cc4[nH]c(C)nc4c3F)c(C(N)=O)c2NCC)c1
